# Assay results published in patent US20250057857A1, “AQUEOUS PARENTERAL PHARMACEUTICAL FORMULATIONS CONTAINING 4-((2-HYDROXY-3-METHOXYBENZYL)AMINO) BENZENESULFONAMIDE DERIVATIVES” (Veralox Therapeutics Inc., priority 2021, published 2025).
# Key:
# Type in all cases: physicochemical
# [1] = Solubility measurement in buffers over a pH range; conditions: thermodynamic from solid
# Protocol: (§1) Solubility analysis of Compound 1 (N-(benzo[d]thiazol-2-yl)-4-((2-hydroxy-3-methoxybenzyl)amino)benzenesulfonamide) was performed in a total of 25 media including organic solvent, co-solvent, solubilizer and buffer, for 2 hours at room temperature.
# (§2) HPLC method with acceptable resolution and main peak purity developed to determine solubility. The method is described in Table 3.
# (§3) 5-10 mg of Compound 1 was added to 0.5-1 mL each medium (target concentration was 10 mg/mL), vortexed briefly to create a suspension. The samples were shaken at room temperature. The samples were prepared in duplicate (n=2) per medium and filtered at 0.5 and 2 hours. The supernatant was collected and analyzed by HPLC.
# [2] = Aqueous solubility (general statements)
# [3] = Solubility measurement in solubilizers (aqueous phosphate buffer at pH 7.4)
# Protocol: as §1, §2, §3
# [4] = Solubility in HP-β-CD at high pH; conditions: 25% cyclodextrin solution, aqueous with cosolvent or surfactant or cyclodextrin
# Protocol: Compound forms a metastable supersaturated solution when formulated with cyclodextrins. To assess for increased solubility, Compound 1 was added to a basic cyclodextrin solution to effect dissolution. The resulting solution was then adjusted with hydrochloric acid into a physiologically compatible pH range and subjected to kinetic solubility, equilibrium solubility, and formulation solubility analyses.
# Kinetic solubility. […] The resulting intermediate pH values were approximately 12.5, which promoted rapid dissolution of Compound 1. However, the solutions are known to be chemically labile at higher pH values. The concentration of Compound 1 in subsequent formulation evaluations was lowered to 20 mg/mL and then reduced to 15 mg/mL.
# [5] = Comparative solubility in SBE-β-CD at pH 9.5; conditions: pH 9.5, 80 mg/mL, 22 hours stirring at room temperature
# Protocol: For this study, 1.20 g of SBE-β-CD was weighed into a beaker and 1.31 mL of water was added. This mixture was stirred to dissolve solid completely. 0.846 g of 60% SBE-β-CD stock solution was weighed into a sample vial, and 1.53 mg of GLY, 70 μL of water, and 130 μL of 2N NaOH were added. This mixture was stirred for 10 minutes at room temperature to dissolve solid completely. 80.6 mg of Compound 1 was added (80 mg/mL) and the mixture was sonicated for 10 minutes followed by vigorous stirring for 22 hours at room temperature (23-25° C.).
# [6] = Solubility measurement in solvents; conditions: for solubility at 2 h / solubility at 0.5 h: room temperature
# Protocol: as §1, §2
# About 5 mg of Compound 1 was weighed to sample vial and 0.5 mL of solvent was added (target concentration was 10 mg/mL) with 30-100 μL per time. The samples were shaken at room temperature. The samples were prepared in duplicate (n=2) per medium and filtered at 0.5 and 2 hours. The supernatant was collected and analyzed by HPLC.
# [7] = pH 8.0, read-out: Solubility with 25% cyclodextrin at pH 8.0
# [8] = pH 9.8, read-out: Solubility with 25% cyclodextrin at pH 9.8
structure (smiles),measurement,setting,value
"COc1cccc(CNc2ccc(S(=O)(=O)Nc3nc4ccccc4s3)cc2)c1O [Compound 1, N-(benzo[d]thiazol-2-yl)-4-((2-hydroxy-3-methoxybenzyl)amino)benzenesulfonamide]",solubility at 0.5 h,"[1]; bicarbonate buffer pH 10.0, pH 10, aqueous buffer, Bicarbonate, pH 10.0, 0.5 h (measured pH 10.02)",0.397 µg/mL
same,solubility at 2 h,"[1]; bicarbonate buffer pH 10.0, pH 10, aqueous buffer, Bicarbonate, pH 10.0, 2 h (measured pH 10.08)",0.576 µg/mL
same,solubility,"[1]; pH 10 buffer, pH 10, aqueous buffer, pH 10, read-out: Solubility in pH 10 buffer",0.4 to 0.6 µg/mL
same,solubility,"[1]; pH buffers, pH 1, aqueous buffer, pH 1-9 buffers, main peak not detected by HPLC, read-out: Solubility in pH buffers, pH 1-9",< 0.15 µg/mL
same,Solubility in water,[2],poor solubility
same,solubility at 0.5 h,"[3]; 1% Tween 80 in phosphate buffer, pH 7.4, aqueous with cosolvent or surfactant or cyclodextrin, thermodynamic from solid, 1% Tween 80, phosphate buffer pH 7.4, 0.5 h",20 µg/mL
same,solubility at 2 h,"[3]; 1% Tween 80 in phosphate buffer, pH 7.4, aqueous with cosolvent or surfactant or cyclodextrin, thermodynamic from solid, 1% Tween 80, phosphate buffer pH 7.4, 2 h, read-out: Solubility at 2 h",39 µg/mL
same,solubility at 0.5 h,"[3]; 5% Cremophor RH40 in phosphate buffer, pH 7.4, aqueous with cosolvent or surfactant or cyclodextrin, thermodynamic from solid, 5% Cremophor RH40, phosphate buffer pH 7.4, 0.5 h",47 µg/mL
same,solubility at 2 h,"[3]; 5% Cremophor RH40 in phosphate buffer, pH 7.4, aqueous with cosolvent or surfactant or cyclodextrin, thermodynamic from solid, 5% Cremophor RH40, phosphate buffer pH 7.4, 2 h, read-out: Solubility at 2 h",51 µg/mL
same,solubility at 0.5 h,"[3]; 5% Solutol in phosphate buffer, pH 7.4, aqueous with cosolvent or surfactant or cyclodextrin, thermodynamic from solid, 5% Solutol, phosphate buffer pH 7.4, 0.5 h",78 µg/mL
same,solubility at 2 h,"[3]; 5% Solutol in phosphate buffer, pH 7.4, aqueous with cosolvent or surfactant or cyclodextrin, thermodynamic from solid, 5% Solutol, phosphate buffer pH 7.4, 2 h, read-out: Solubility at 2 h",~100 µg/mL
same,solubility at 2 h,"[3]; 5% Solutol, phosphate buffer pH 7.4, 2 h",100 µg/mL
same,solubility at 0.5 h,"[3]; 5% Tween 80 in phosphate buffer, pH 7.4, aqueous with cosolvent or surfactant or cyclodextrin, thermodynamic from solid, 5% Tween 80, phosphate buffer pH 7.4, 0.5 h",41 µg/mL
same,solubility at 2 h,"[3]; 5% Tween 80 in phosphate buffer, pH 7.4, aqueous with cosolvent or surfactant or cyclodextrin, thermodynamic from solid, 5% Tween 80, phosphate buffer pH 7.4, 2 h, read-out: Solubility at 2 h",46 µg/mL
same,solubility at 0.5 h,"[3]; 10% HP-β-CD in phosphate buffer, pH 7.4, aqueous with cosolvent or surfactant or cyclodextrin, thermodynamic from solid, 10% HP-β-CD, phosphate buffer pH 7.4, 0.5 h",56 µg/mL
same,solubility at 2 h,"[3]; 10% HP-β-CD in phosphate buffer, pH 7.4, aqueous with cosolvent or surfactant or cyclodextrin, thermodynamic from solid, 10% HP-β-CD, phosphate buffer pH 7.4, 2 h, read-out: Solubility at 2 h",63 µg/mL
same,solubility at 0.5 h,"[3]; 10% Tween 80 in phosphate buffer, pH 7.4, aqueous with cosolvent or surfactant or cyclodextrin, thermodynamic from solid, 10% Tween 80, phosphate buffer pH 7.4, 0.5 h",76 µg/mL
same,solubility at 2 h,"[3]; 10% Tween 80 in phosphate buffer, pH 7.4, aqueous with cosolvent or surfactant or cyclodextrin, thermodynamic from solid, 10% Tween 80, phosphate buffer pH 7.4, 2 h, read-out: Solubility at 2 h",78 µg/mL
same,solubility at 0.5 h,"[3]; 20% Captisol in phosphate buffer, pH 7.4, aqueous with cosolvent or surfactant or cyclodextrin, thermodynamic from solid, 20% Captisol, phosphate buffer pH 7.4, 0.5 h",100 µg/mL
same,solubility at 2 h,"[3]; 20% Captisol in phosphate buffer, pH 7.4, aqueous with cosolvent or surfactant or cyclodextrin, thermodynamic from solid, 20% Captisol, phosphate buffer pH 7.4, 2 h, read-out: Solubility at 2 h",110 µg/mL
same,solubility at 0.5 h,"[3]; 20% HP-β-CD in phosphate buffer, pH 7.4, aqueous with cosolvent or surfactant or cyclodextrin, thermodynamic from solid, 20% HP-β-CD, phosphate buffer pH 7.4, 0.5 h",170 µg/mL
same,solubility at 2 h,"[3]; 20% HP-β-CD in phosphate buffer, pH 7.4, aqueous with cosolvent or surfactant or cyclodextrin, thermodynamic from solid, 20% HP-β-CD, phosphate buffer pH 7.4, 2 h, read-out: Solubility at 2 h",190 µg/mL
same,solubility at 0.5 h,"[3]; 40% HP-β-CD in aqueous phosphate buffer pH 7.4, pH 7.4, aqueous with cosolvent or surfactant or cyclodextrin, thermodynamic from solid, 40% HP-β-CD, phosphate buffer pH 7.4, 0.5 h",450 µg/mL
same,solubility at 2 h,"[3]; 40% HP-β-CD in phosphate buffer, pH 7.4, aqueous with cosolvent or surfactant or cyclodextrin, thermodynamic from solid, 40% HP-β-CD, phosphate buffer pH 7.4, 2 h, read-out: Solubility at 2 h",570 µg/mL
same,Increase of solubility with the increase of HP-β-CD from 10% to 40%,"[3]; HP-β-CD 10% to 40%, pH 7.4",> 8 fold
same,solubility,"[3]; HP-β-CD (range of contents) in aqueous phosphate buffer, pH 7.4, aqueous with cosolvent or surfactant or cyclodextrin, thermodynamic from solid, HP-β-CD, range over contents tested",50 to 500 µg/mL
same,Increase of solubility with the increase of Tween 80 from 1% to 10%,[3]; Tween 80 1% to 10%,about 4 fold
same,Solubility in HP-β-CD compared with Captisol (SBE-β-CD),[3]; same concentration (20%),nearly two times greater
same,solubility,[4]; [7],~20000 µg/mL
same,solubility,[4]; [8],~40000 µg/mL
same,"Dissolution in SBE-β-CD, visual observation",[5],"Little, if any, dissolution"
same,solubility at 2 h,"[6]; DMAC, 2 h, visual observation",Not precipitated
same,solubility at 0.5 h,"[6]; DMAC, organic solvent or mixture, thermodynamic from solid, 0.5 h, visual observation",> 100000 µg/mL
same,solubility at 2 h,"[6]; DMSO, 2 h, visual observation",Not precipitated
same,solubility at 0.5 h,"[6]; DMSO, organic solvent or mixture, thermodynamic from solid, 0.5 h, visual observation",> 100000 µg/mL
same,solubility at 0.5 h,"[6]; EtOH, organic solvent or mixture, thermodynamic from solid, 0.5 h",290 µg/mL
same,solubility at 2 h,"[6]; EtOH, organic solvent or mixture, thermodynamic from solid, EtOH, 2 h, read-out: Solubility at 2 h",270 µg/mL
same,solubility at 0.5 h,"[6]; Glycerin, organic solvent or mixture, thermodynamic from solid, 0.5 h",13 µg/mL
same,solubility at 2 h,"[6]; Glycerin, organic solvent or mixture, thermodynamic from solid, Glycerin, 2 h, read-out: Solubility at 2 h",25 µg/mL
same,solubility at 2 h,"[6]; NMP, 2 h, visual observation",Not precipitated
same,solubility at 0.5 h,"[6]; NMP, organic solvent or mixture, thermodynamic from solid, 0.5 h, visual observation",> 100000 µg/mL
same,solubility at 0.5 h,"[6]; PEG400, organic solvent or mixture, thermodynamic from solid, PEG400, 0.5 h",4420 µg/mL
same,solubility at 2 h,"[6]; PEG400, organic solvent or mixture, thermodynamic from solid, PEG400, 2 h, solution was clear at 2 h, read-out: Solubility at 2 h",> 10000 µg/mL
same,solubility,"[6]; PEG400, organic solvent or mixture, thermodynamic from solid, PEG400, span over 0.5 h and 2 h, read-out: Solubility in PEG400",4000 to 10000 µg/mL
same,solubility at 0.5 h,"[6]; PG, organic solvent or mixture, thermodynamic from solid, 0.5 h",400 µg/mL
same,solubility at 2 h,"[6]; PG, organic solvent or mixture, thermodynamic from solid, PG, 2 h, read-out: Solubility at 2 h",420 µg/mL
same,solubility,"[6]; hexane, organic solvent or mixture, thermodynamic from solid, hexane, non-polar solvent, read-out: Solubility in hexane",< 0.15 µg/mL
same,solubility at 0.5 h,"[6]; n-Hexane, organic solvent or mixture, thermodynamic from solid, 0.5 h, LOQ = 0.00015 mg/mL",< 0.15 µg/mL
same,solubility at 2 h,"[6]; n-Hexane, organic solvent or mixture, thermodynamic from solid, n-Hexane, 2 h, LOQ = 0.00015 mg/mL, read-out: Solubility at 2 h",< 0.15 µg/mL
same,solubility,"[6]; solvents other than DMSO, DMAC, NMP and PEG400, organic solvent or mixture, thermodynamic from solid, solvents other than DMSO, DMAC, NMP and PEG400, read-out: Solubility in other solvents",< 1000 µg/mL
"COc1cccc(CNc2ccc(S(=O)(=O)Nc3nc4ccccc4o3)cc2)c1O [Compound 2, N-(benzo[d]oxazol-2-yl)-4-((2-hydroxy-3-methoxybenzyl)amino)benzenesulfonamide]",Solubility in water,[2],poor solubility
same,solubility,[4]; [7],~20000 µg/mL
same,solubility,[4]; [8],~40000 µg/mL
"COc1cccc(CNc2ccc(S(=O)(=O)Nc3cccc(C(C)C)c3)cc2)c1O [Compound 3, 4-((2-hydroxy-3-methoxybenzyl)amino)-N-(3-isopropylphenyl)benzenesulfonamide]",Solubility in water,[2],poor solubility
same,solubility,[4]; [7],~20000 µg/mL
same,solubility,[4]; [8],~40000 µg/mL
